Reference: patent US11084800B2 (Achillion Pharmaceuticals, Inc., priority 2017, dated 2021)

The compounds below were run against Human Factor D (Homo sapiens (Human), UniProt P00746) (assay: Human Factor D Assay). Details: Table 6; Factor D 80 nM, substrate Z-L-Lys-SBz; read-out: IC50.
Type: biochemical
Description: The assay of Example 10 was used to determine the IC50's of the compounds. Other standard factor D inhibition assays are also available.
Human Factor D (purified from human serum, Complement Technology, Inc.) at 80 nM final concentration is incubated with test compound at various concentrations for 5 min at room temperature in 50 mM Tris, 1M NaCl, pH 7.5. A synthetic substrate Z-L-Lys-SBz and DTNB (Ellman's reagent) are added to final concentrations of 100 μM each. Absorbance at 405 nm (A405) is recorded at 30 second intervals for 30 min using a microplate spectrophotometer. IC50 values are calculated by nonlinear regression of complement Factor D reaction rates as a function of test compound concentration.

Chain of Human Factor D (P00746 26-253): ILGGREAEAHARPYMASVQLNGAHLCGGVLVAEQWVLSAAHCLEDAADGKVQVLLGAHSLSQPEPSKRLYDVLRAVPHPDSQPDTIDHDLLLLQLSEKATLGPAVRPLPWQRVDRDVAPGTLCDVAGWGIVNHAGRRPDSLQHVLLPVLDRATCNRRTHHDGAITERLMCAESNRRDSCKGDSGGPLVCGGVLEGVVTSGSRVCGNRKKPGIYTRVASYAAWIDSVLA

Going from CC(=O)c1nn(CC(=O)N2[C@H](C(=O)O)C[C@@]3(C)C[C@@H]23)c2ccc(-c3cnc(C)nc3)cc12 [Compound 40, (1R,3S,5R)-2-(2-(3-acetyl-5-(2-methylpyrimidin-5-yl)-1H-indazol-1-yl)acetyl)-5-methyl-2-azabicyclo[3.1.0]hexane-3-carboxylic acid] to CC(=O)c1nn(CC(=O)N2[C@H](C(=O)Nc3nc(Br)ccc3C)C[C@@]3(CO)C[C@@H]23)c2ccc(-c3cnc(C)nc3)cc12 [Compound 65, (1R,3S,5S)-2-(2-(3-acetyl-5-(2-methylpyrimidin-5-yl)-1H-indazol-1-yl)acetyl)-N-(6-bromo-3-methylpyridin-2-yl)-5-(hydroxymethyl)-2-azabicyclo[3.1.0]hexane-3-carboxamide], the IC50 falls from over 10000 nM to under 1000 nM.

CC(=O)c1nn(CC(=O)N2C[C@H](F)C[C@H]2C(=O)Nc2cccc(Br)n2)c2c(C(=O)O)cc(-c3cnc(C)nc3)cc12 [Compound 41, 3-acetyl-1-(2-((2S,4R)-2-((6-bromopyridin-2-yl)carbamoyl)-4-fluoropyrrolidin-1-yl)-2-oxoethyl)-5-(2-methylpyrimidin-5-yl)-1H-indazole-7-carboxylic acid] and CC(=O)c1nn(CC(=O)N2C[C@H](F)C[C@H]2C(=O)Nc2nc(Br)ccc2CC(=O)O)c2ccc(-c3cnc(C)nc3)cc12 [Compound 62, 2-(2-((2S,4R)-1-(2-(3-Acetyl-5-(2-methylpyrimidin-5-yl)-1H-indazol-1-yl)acetyl)-4-fluoropyrrolidine-2-carboxamido)-6-bromopyridin-3-yl)acetic Acid] cannot be ordered by IC50: under 1000 nM for the first, under 1000 nM for the second.

CNCC12CC1N(C(=O)Cn1nc(C(C)=O)c3cc(-c4cnc(C)nc4)ccc31)[C@H](C(=O)Nc1nc(Br)ccc1C)C2 (stereo partly drawn) [Compound 42, (3S)-2-(2-(3-acetyl-5-(2-methylpyrimidin-5-yl)-1H-indazol-1-yl)acetyl)-N-(6-bromo-3-methylpyridin-2-yl)-5-((methylamino)methyl)-2-azabicyclo[3.1.0]hexane-3-carboxamide] and CC(=O)c1nn(CC(=O)N2[C@H](C(=O)Nc3nc(Br)ccc3C)C[C@@]3(CN4CC5(CCC5)C4)C[C@@H]23)c2ccc(-c3cnc(C)nc3)cc12 [Compound 67, (1R,3S,5R)-5-(2-azaspiro[3.3]heptan-2-ylmethyl)-2-(2-(3-acetyl-5-(2-methylpyrimidin-5-yl)-1H-indazol-1-yl)acetyl)-N-(6-bromo-3-methylpyridin-2-yl)-2-azabicyclo[3.1.0]hexane-3-carboxamide] cannot be ordered by IC50: under 1000 nM for the first, under 1000 nM for the second.

First: CC(=O)NC[C@@]12C[C@@H]1N(C(=O)Cn1nc(C(C)=O)c3cc(-c4cnc(C)nc4)ccc31)[C@H](C(=O)Nc1cccc(Br)n1)C2 [Compound 43, (1S,3S,5S)-5-(Acetamidomethyl)-2-(2-(3-acetyl-5-(2-methylpyrimidin-5-yl)-1H-indazol-1-yl)acetyl)-N-(6-bromopyridin-2-yl)-2-azabicyclo[3.1.0]hexane-3-carboxamide]
Second: CC(=O)NC[C@@]12C[C@@H](C(=O)Nc3cccc(Br)n3)N(C(=O)Cn3nc(C(C)=O)c4cc(-c5cnc(C)nc5)ccc43)[C@@H]1C2 [Compound 44, (1R,3S,5R)-5-(Acetamidomethyl)-2-(2-(3-acetyl-5-(2-methylpyrimidin-5-yl)-1H-indazol-1-yl)acetyl)-N-(6-bromopyridin-2-yl)-2-azabicyclo[3.1.0]hexane-3-carboxamide]
The IC50 of the first is higher: 1000 to 10000 nM for the first, under 1000 nM for the second. The second is the more potent here.

Going from COC(=O)N[C@H](C(=O)NCC12CC1N(C(=O)Cn1nc(C(C)=O)c3cc(-c4cnc(C)nc4)ccc31)[C@H](C(=O)Nc1cccc(Br)n1)C2)C(C)C (stereo partly drawn) [Compound 45, Methyl (2S)-1-(((3S)-2-(2-(3-acetyl-5-(2-methylpyrimidin-5-yl)-1H-indazol-1-yl)acetyl)-3-(6-bromopyridin-2-ylcarbamoyl)-2-azabicyclo[3.1.0]hexan-5-yl)methylamino)-3-methyl-1-oxobutan-2-ylcarbamate] to COCc1ccc(Br)c(NC(=O)[C@@H]2CC3(CNC(=O)[C@@H](NC(=O)OC)C(C)C)CC3N2C(=O)Cn2nc(C(C)=O)c3cc(-c4cnc(C)nc4)ccc32)n1 (stereo partly drawn) [Compound 48, methyl ((2S)-1-((((3S)-2-(2-(3-acetyl-5-(2-methylpyrimidin-5-yl)-1H-indazol-1-yl)acetyl)-3-((3-bromo-6-(methoxymethyl)pyridin-2-yl)carbamoyl)-2-azabicyclo[3.1.0]hexan-5-yl)methyl)amino)-3-methyl-1-oxobutan-2-yl)carbamate], the IC50 rises from under 1000 nM to over 10000 nM.

CC(=O)c1nn(CC(=O)N2[C@H](C(=O)Nc3ccc(F)c(Br)n3)C[C@@]3(C)C[C@@H]23)c2c(C)cc(-c3cnc(C)nc3)cc12 [Compound 46, (1R,3S,5R)-2-(2-(3-acetyl-7-methyl-5-(2-methylpyrimidin-5-yl)-1H-indazol-1-yl)acetyl)-N-(6-bromo-5-fluoropyridin-2-yl)-5-methyl-2-azabicyclo[3.1.0]hexane-3-carboxamide] and Cc1ncc(-c2cc(C)c3c(c2)c(C(N)=O)nn3CC(=O)N2[C@H](C(=O)Nc3cccc(Br)n3)C[C@@]3(C)C[C@@H]23)cn1 [Compound 58, 1-(2-((1R,3S,5R)-3-((6-Bromopyridin-2-yl)carbamoyl)-5-methyl-2-azabicyclo[3.1.0]hexan-2-yl)-2-oxoethyl)-7-methyl-5-(2-methylpyrimidin-5-yl)-1H-indazole-3-carboxamide] cannot be ordered by IC50: under 1000 nM for the first, under 1000 nM for the second.

CCc1cc(-c2cnc(C)nc2)cc2c(C(C)=O)nn(CC(=O)N3[C@H](C(=O)Nc4nc(Br)ccc4C)C[C@@]4(C)C[C@@H]34)c12 [Compound 47, (1R,3S,5R)-2-(2-(3-Acetyl-7-ethyl-5-(2-methylpyrimidin-5-yl)-1H-indazol-1-yl)acetyl)-N-(6-bromo-3-methylpyridin-2-yl)-5-methyl-2-azabicyclo[3.1.0]hexane-3-carboxamide] and Cc1ncc(-c2cc(C)c3c(c2)c(C(N)=O)nn3CC(=O)N2[C@H](C(=O)Nc3nc(Br)ccc3C)C[C@@]3(C)C[C@@H]23)cn1 [Compound 57, 1-(2-((1R,3S,5R)-3-((6-Bromo-3-methylpyridin-2-yl)carbamoyl)-5-methyl-2-azabicyclo[3.1.0]hexan-2-yl)-2-oxoethyl)-7-methyl-5-(2-methylpyrimidin-5-yl)-1H-indazole-3-carboxamide] cannot be ordered by IC50: under 1000 nM for the first, under 1000 nM for the second.

CC(=O)c1nn(CC(=O)N2[C@H](C(=O)Nc3nc(Br)ccc3C)C[C@@]3(C)C[C@@H]23)c2c(C)cc(-c3cnc(C)[n+]([O-])c3)cc12 [Compound 50, 5-(3-Acetyl-1-(2-((1R,3S,5R)-3-(6-bromo-3-methylpyridin-2-ylcarbamoyl)-5-methyl-2-azabicyclo[3.1.0]hexan-2-yl)-2-oxoethyl)-7-methyl-1H-indazol-5-yl)-2-methylpyrimidine 1-oxide] and CC(=O)c1nn(CC(=O)N2[C@H](C(=O)Nc3nc(Br)ccc3C)C[C@@]3(C)C[C@@H]23)c2ccc(-c3cnc(C)[n+]([O-])c3)cc12 [Compound 64, 5-(3-acetyl-1-(2-((1R,3S,5R)-3-((6-bromo-3-methylpyridin-2-yl)carbamoyl)-5-methyl-2-azabicyclo[3.1.0]hexan-2-yl)-2-oxoethyl)-1H-indazol-5-yl)-2-methylpyrimidine 1-oxide] cannot be ordered by IC50: under 1000 nM for the first, under 1000 nM for the second.

First: Cc1ncc(-c2ccc3c(c2)c(C(N)=O)nn3CC(=O)N2C[C@H]3C[C@H]3[C@H]2C(=O)Nc2nc(Br)ccc2C)cn1 [Compound 56, 1-(2-((1R,2S,5S)-2-((6-Bromo-3-methylpyridin-2-yl)carbamoyl)-3-azabicyclo[3.1.0]hexan-3-yl)-2-oxoethyl)-5-(2-methylpyrimidin-5-yl)-1H-indazole-3-carboxamide]
Second: Cc1ncc(-c2ccc3c(c2)c(C(C)O)nn3CC(=O)N2C[C@H]3C[C@H]3[C@H]2C(=O)Nc2nc(Br)ccc2C)cn1 (stereo partly drawn) [Compound 71, (1R,2S,5S)-N-(6-bromo-3-methylpyridin-2-yl)-3-(2-(3-(1-hydroxyethyl)-5-(2-methylpyrimidin-5-yl)-1H-indazol-1-yl)acetyl)-3-azabicyclo[3.1.0]hexane-2-carboxamide]
The IC50 of the first is lower: under 1000 nM for the first, 1000 to 10000 nM for the second. The first is the more potent here.

CC(=O)c1nn(CC(=O)N2C[C@@](F)(CF)C[C@H]2C(=O)Nc2nc(Br)ccc2C)c2c(C)cc(-c3cnc(C)nc3)cc12 [Compound 66, (2S,4R)-1-(2-(3-Acetyl-7-methyl-5-(2-methylpyrimidin-5-yl)-1H-indazol-1-yl)acetyl)-N-(6-bromo-3-methylpyridin-2-yl)-4-fluoro-4-(fluoromethyl)pyrrolidine-2-carboxamide] and CC(=O)c1nn(CC(=O)N2[C@H](C(=O)Nc3nc(Br)ccc3C)C[C@@]3(CN4CCN(C)CC4)C[C@@H]23)c2c(C)cc(-c3cnc(C)nc3)cc12 [Compound 69, (1R,3S,5R)-2-(2-(3-Acetyl-7-methyl-5-(2-methylpyrimidin-5-yl)-1H-indazol-1-yl)acetyl)-N-(6-bromo-3-methylpyridin-2-yl)-5-((4-methylpiperazin-1-yl)methyl)-2-azabicyclo[3.1.0]hexane-3-carboxamide] cannot be ordered by IC50: under 1000 nM for the first, under 1000 nM for the second.

CC(=O)c1nn(CC(=O)N2[C@H]3C[C@@]3(CN3CC4(CCC4)C3)C[C@H]2C(=O)Nc2nc(Br)ccc2C)c2ccc(-c3cnc(C)nc3)cc12 [Compound 68] and C=CCOCc1ccc(Br)nc1NC(=O)[C@@H]1C[C@@]2(CN(C)CC=C)C[C@H]2N1C(=O)Cn1nc(C(C)=O)c2cc(-c3cnc(C)nc3)ccc21 [Compound 70, (1R,3S,5R)-2-(2-(3-Acetyl-5-(2-methylpyrimidin-5-yl)-1H-indazol-1-yl)acetyl)-5-((allyl(methyl)amino)methyl)-N-(3-((allyloxy)methyl)-6-bromopyridin-2-yl)-2-azabicyclo[3.1.0]hexane-3-carboxamide] cannot be ordered by IC50: under 1000 nM for the first, under 1000 nM for the second.
